According to the kinase profiling compilation of Christmann-Franck et al. (2016):

Legend:
Assay in all cases: radiometric filter-binding kinase assay
ABL1 (human) = ABL1 (human) (UniProt P00519)
AURKB (human) = AURKB (human) (UniProt Q96GD4)
CDK9 CCNT1 (human) = CDK9 CCNT1 (human) (UniProt P50750+O60563)
CSNK1G2 (human) = CSNK1G2 (human) (UniProt P78368)
DDR2 (human) = DDR2 (human) (UniProt Q16832)
EIF2AK3 (human) = EIF2AK3 (human) (UniProt Q9NZJ5)
IRAK1 (human) = IRAK1 (human) (UniProt P51617)
MAP4K3 (human) = MAP4K3 (human) (UniProt Q8IVH8)
MAP4K3 (human), sequence (Q8IVH8 whole entry, looked up): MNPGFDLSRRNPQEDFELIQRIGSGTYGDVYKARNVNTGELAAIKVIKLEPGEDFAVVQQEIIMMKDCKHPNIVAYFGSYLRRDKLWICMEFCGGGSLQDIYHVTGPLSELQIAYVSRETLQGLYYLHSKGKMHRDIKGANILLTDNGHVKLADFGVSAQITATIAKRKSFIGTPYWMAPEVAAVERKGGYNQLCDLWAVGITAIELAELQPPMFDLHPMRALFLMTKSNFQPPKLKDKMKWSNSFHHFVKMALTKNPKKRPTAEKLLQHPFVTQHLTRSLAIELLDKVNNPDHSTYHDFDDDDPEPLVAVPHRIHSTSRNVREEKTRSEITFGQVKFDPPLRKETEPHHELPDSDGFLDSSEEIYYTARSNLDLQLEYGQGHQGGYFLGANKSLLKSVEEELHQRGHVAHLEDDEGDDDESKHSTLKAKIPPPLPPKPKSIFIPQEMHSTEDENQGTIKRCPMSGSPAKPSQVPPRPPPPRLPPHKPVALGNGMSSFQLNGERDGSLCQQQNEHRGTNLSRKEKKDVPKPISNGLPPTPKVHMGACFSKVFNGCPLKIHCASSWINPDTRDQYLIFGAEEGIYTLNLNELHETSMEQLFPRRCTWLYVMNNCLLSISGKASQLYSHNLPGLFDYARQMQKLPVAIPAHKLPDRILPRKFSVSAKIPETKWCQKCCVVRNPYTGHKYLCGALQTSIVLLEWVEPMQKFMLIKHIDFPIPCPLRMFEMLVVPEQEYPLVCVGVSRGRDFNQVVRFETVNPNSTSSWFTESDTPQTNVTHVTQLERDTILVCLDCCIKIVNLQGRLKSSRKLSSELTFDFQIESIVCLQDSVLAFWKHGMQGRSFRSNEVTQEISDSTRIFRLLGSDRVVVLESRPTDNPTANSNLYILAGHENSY

MAP4K5 (human) = MAP4K5 (human) (UniProt Q9Y4K4)
MAPK7 (human) = MAPK7 (human) (UniProt Q13164)
[1] = test system: OXSR1 (human), O95747 [T185E]
PDGFRA (human) = PDGFRA (human) (UniProt P16234)
PHKG1 (human) = PHKG1 (human) (UniProt Q16816); conditions: compound 0.1 µM
[2] = target: PRKAA1 PRKAB2 PRKAG1 (human) (UniProt O43741+Q13131+P54619)
PRKCG (human) = PRKCG (human) (UniProt P05129)
PTK6 (human) = PTK6 (human) (UniProt Q13882)
SIK2 (human) = SIK2 (human) (UniProt Q9H0K1)
SIK3 (human) = SIK3 (human) (UniProt Q9Y2K2)
STK16 (human) = STK16 (human) (UniProt O75716)
STK16 (human), sequence (O75716 whole entry, looked up): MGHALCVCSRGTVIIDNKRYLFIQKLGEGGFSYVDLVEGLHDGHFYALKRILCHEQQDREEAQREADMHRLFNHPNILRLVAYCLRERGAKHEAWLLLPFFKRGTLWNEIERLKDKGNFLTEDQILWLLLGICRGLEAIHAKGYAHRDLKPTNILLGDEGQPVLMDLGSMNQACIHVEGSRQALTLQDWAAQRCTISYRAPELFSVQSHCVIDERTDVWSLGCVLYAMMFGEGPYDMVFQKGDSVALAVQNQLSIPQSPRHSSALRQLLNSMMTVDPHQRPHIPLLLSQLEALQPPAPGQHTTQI

STK24 (human) = STK24 (human) (UniProt Q9Y6E0)
STK33 (human) = STK33 (human) (UniProt Q9BYT3)
TESK1 (human) = TESK1 (human) (UniProt Q15569)
TESK1 (human), sequence (Q15569 whole entry, looked up): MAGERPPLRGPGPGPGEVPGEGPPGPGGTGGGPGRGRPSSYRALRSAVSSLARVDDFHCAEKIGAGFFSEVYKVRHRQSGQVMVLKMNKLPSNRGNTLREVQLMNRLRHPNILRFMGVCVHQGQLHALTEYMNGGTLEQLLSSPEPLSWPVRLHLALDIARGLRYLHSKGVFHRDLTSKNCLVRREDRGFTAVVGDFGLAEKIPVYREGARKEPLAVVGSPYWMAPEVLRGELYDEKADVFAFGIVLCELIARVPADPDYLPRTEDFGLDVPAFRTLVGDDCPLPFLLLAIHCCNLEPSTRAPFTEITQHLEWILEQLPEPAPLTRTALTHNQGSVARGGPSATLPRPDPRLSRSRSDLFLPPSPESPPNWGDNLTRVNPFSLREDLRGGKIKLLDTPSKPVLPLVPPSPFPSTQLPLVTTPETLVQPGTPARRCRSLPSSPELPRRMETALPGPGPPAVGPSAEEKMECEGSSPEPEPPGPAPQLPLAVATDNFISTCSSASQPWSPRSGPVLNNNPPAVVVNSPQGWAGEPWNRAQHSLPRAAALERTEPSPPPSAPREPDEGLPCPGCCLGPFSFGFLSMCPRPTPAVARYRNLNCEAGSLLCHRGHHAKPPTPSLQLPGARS

[3] = test system: TGFBR1 (human), P36897 [T204D]
TLK1 (human) = TLK1 (human) (UniProt Q9UKI8)
TSSK1B (human) = TSSK1B (human) (UniProt Q9BXA7)
TSSK1B (human), sequence (Q9BXA7 whole entry, looked up): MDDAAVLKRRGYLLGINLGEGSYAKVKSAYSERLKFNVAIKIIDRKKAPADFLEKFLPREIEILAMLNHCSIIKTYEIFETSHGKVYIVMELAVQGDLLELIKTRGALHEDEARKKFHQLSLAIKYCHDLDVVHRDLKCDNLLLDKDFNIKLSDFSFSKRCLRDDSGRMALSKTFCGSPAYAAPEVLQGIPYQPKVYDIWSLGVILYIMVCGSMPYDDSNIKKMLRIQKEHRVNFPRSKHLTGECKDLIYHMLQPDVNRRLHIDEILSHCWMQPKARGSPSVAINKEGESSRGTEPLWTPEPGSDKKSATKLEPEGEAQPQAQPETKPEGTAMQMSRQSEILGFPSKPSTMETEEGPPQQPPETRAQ

TTBK2 (human) = TTBK2 (human) (UniProt Q6IQ55)
ULK1 (human) = ULK1 (human) (UniProt O75385)
ULK2 (human) = ULK2 (human) (UniProt Q8IYT8)
WNK1 (human) = WNK1 (human) (UniProt Q9H4A3)
ZAP70 (human) = ZAP70 (human) (UniProt P43403)
ZAP70 (human), sequence (P43403 whole entry, looked up): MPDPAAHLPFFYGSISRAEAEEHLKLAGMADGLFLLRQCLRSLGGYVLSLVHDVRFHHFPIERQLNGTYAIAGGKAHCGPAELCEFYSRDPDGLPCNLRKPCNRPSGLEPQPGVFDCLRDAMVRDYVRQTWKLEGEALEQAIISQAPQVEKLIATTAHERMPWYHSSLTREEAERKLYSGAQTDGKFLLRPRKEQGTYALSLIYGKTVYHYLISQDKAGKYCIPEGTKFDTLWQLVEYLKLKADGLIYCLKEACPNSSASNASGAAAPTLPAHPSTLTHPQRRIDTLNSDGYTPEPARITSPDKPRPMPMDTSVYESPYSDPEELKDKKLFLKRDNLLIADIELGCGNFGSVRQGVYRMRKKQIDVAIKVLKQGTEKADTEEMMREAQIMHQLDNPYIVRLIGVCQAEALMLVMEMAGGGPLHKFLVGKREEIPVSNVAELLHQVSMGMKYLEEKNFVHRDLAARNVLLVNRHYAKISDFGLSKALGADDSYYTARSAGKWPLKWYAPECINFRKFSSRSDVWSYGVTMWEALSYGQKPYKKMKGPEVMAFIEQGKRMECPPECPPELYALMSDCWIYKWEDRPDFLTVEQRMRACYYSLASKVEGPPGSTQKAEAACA

TEK (human) = TEK (human) (UniProt Q02763)
TTBK1 (human) = TTBK1 (human) (UniProt Q5TCY1)

ABL1 (human), sequence (P00519 whole entry, looked up): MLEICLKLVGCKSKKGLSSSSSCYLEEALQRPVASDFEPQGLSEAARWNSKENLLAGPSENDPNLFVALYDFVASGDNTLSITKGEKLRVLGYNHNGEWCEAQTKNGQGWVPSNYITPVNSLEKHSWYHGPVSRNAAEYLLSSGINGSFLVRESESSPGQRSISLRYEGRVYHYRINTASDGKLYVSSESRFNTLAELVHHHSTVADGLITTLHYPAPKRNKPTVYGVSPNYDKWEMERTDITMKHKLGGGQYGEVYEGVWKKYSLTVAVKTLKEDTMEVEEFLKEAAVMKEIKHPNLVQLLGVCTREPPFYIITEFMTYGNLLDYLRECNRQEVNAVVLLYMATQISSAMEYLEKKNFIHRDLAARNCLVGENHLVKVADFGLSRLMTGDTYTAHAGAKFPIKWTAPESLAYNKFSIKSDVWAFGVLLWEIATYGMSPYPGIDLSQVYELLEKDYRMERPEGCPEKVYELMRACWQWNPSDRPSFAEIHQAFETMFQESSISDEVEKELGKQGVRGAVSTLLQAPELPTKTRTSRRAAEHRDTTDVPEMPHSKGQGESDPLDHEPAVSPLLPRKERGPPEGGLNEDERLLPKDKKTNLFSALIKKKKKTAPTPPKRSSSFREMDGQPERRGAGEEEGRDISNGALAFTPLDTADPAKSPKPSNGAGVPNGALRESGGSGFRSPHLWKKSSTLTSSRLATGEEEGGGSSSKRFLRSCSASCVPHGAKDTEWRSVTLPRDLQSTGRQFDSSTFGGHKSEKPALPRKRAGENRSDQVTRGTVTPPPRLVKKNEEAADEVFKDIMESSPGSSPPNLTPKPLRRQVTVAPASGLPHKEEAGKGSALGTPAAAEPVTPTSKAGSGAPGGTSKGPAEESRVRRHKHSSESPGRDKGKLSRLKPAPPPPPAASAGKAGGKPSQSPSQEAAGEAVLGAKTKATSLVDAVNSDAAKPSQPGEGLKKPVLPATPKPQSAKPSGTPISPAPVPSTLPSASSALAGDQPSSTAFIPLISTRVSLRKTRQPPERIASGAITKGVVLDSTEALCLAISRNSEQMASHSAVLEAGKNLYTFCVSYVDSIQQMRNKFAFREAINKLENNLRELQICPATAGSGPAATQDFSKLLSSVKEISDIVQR
AURKB (human), sequence (Q96GD4 whole entry, looked up): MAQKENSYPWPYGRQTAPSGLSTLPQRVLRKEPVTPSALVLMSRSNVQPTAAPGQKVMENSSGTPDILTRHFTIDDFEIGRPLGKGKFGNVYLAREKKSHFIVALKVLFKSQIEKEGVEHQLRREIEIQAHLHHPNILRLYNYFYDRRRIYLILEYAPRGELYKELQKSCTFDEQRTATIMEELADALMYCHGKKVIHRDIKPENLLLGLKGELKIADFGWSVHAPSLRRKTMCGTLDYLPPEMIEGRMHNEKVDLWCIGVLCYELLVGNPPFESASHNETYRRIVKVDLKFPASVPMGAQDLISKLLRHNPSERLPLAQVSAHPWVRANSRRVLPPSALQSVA

## CN1CCN(CCOc2cc(OC3CCOCC3)c3c(Nc4c(Cl)ccc5c4OCO5)ncnc3c2)CC1
ABL1 (human); compound 0.1 µM
  residual activity: 26%
AURKB (human); compound 0.1 µM
  residual activity: 82%
CDK9 CCNT1 (human); compound 0.1 µM
  residual activity: 100%
CSNK1G2 (human); compound 0.1 µM
  residual activity: 107%
DDR2 (human); compound 0.1 µM
  residual activity: 20%
EIF2AK3 (human); compound 0.1 µM
  residual activity: 111%
IRAK1 (human); compound 0.1 µM
  residual activity: 84%
MAP4K3 (human); compound 0.1 µM
  residual activity: 85%
MAP4K5 (human); compound 0.1 µM
  residual activity: 70%
MAPK7 (human); compound 0.1 µM
  residual activity: 90%
[1]; compound 0.1 µM
  residual activity: 102%
PDGFRA (human); compound 0.1 µM
  residual activity: 101%
PHKG1 (human)
  residual activity: 106%
[2]; compound 0.1 µM
  residual activity: 102%
PRKCG (human); compound 0.1 µM
  residual activity: 103%
PTK6 (human); compound 0.1 µM
  residual activity: 31%
SIK2 (human); compound 0.1 µM
  residual activity: 51%
SIK3 (human); compound 0.1 µM
  residual activity: 92%
STK16 (human); compound 0.1 µM
  residual activity: 108%
STK24 (human); compound 0.1 µM
  residual activity: 102%
STK33 (human); compound 0.1 µM
  residual activity: 105%
TESK1 (human); compound 0.1 µM
  residual activity: 94%
[3]; compound 0.1 µM
  residual activity: 90%
TLK1 (human); compound 0.1 µM
  residual activity: 107%
TSSK1B (human); compound 0.1 µM
  residual activity: 115%
TTBK2 (human); compound 0.1 µM
  residual activity: 94%
ULK1 (human); compound 0.1 µM
  residual activity: 99%
ULK2 (human); compound 0.1 µM
  residual activity: 109%
WNK1 (human); compound 0.1 µM
  residual activity: 99%
ZAP70 (human); compound 0.1 µM
  residual activity: 122%

## COC(=O)/C=C/C(=O)OC
ABL1 (human); compound 10.0 µM
  residual activity: 98%
ABL1 (human); compound 100.0 µM
  residual activity: 105%
ABL1 (human); compound 1000.0 µM
  residual activity: 95%
AURKB (human); compound 10.0 µM
  residual activity: 90%
AURKB (human); compound 100.0 µM
  residual activity: 102%
AURKB (human); compound 1000.0 µM
  residual activity: 98%
CDK9 CCNT1 (human); compound 10.0 µM
  residual activity: 91%
CDK9 CCNT1 (human); compound 100.0 µM
  residual activity: 98%
CDK9 CCNT1 (human); compound 1000.0 µM
  residual activity: 103%
CSNK1G2 (human); compound 10.0 µM
  residual activity: 92%
CSNK1G2 (human); compound 100.0 µM
  residual activity: 101%
CSNK1G2 (human); compound 1000.0 µM
  residual activity: 101%
DDR2 (human); compound 10.0 µM
  residual activity: 103%
DDR2 (human); compound 100.0 µM
  residual activity: 100%
EIF2AK3 (human); compound 10.0 µM
  residual activity: 95%
EIF2AK3 (human); compound 100.0 µM
  residual activity: 107%
IRAK1 (human); compound 10.0 µM
  residual activity: 101%
IRAK1 (human); compound 100.0 µM
  residual activity: 100%
IRAK1 (human); compound 1000.0 µM
  residual activity: 97%
MAP4K3 (human); compound 10.0 µM
  residual activity: 92%
MAP4K3 (human); compound 100.0 µM
  residual activity: 81%
MAP4K3 (human); compound 1000.0 µM
  residual activity: 85%
MAP4K5 (human); compound 10.0 µM
  residual activity: 91%
MAP4K5 (human); compound 100.0 µM
  residual activity: 87%
MAPK7 (human); compound 10.0 µM
  residual activity: 88%
MAPK7 (human); compound 100.0 µM
  residual activity: 94%
MAPK7 (human); compound 1000.0 µM
  residual activity: 97%
[1]; compound 10.0 µM
  residual activity: 96%
[1]; compound 100.0 µM
  residual activity: 107%
[1]; compound 1000.0 µM
  residual activity: 116%
PDGFRA (human); compound 10.0 µM
  residual activity: 101%
PDGFRA (human); compound 100.0 µM
  residual activity: 103%
PDGFRA (human); compound 1000.0 µM
  residual activity: 104%
[2]; compound 10.0 µM
  residual activity: 87%
[2]; compound 100.0 µM
  residual activity: 95%
[2]; compound 1000.0 µM
  residual activity: 102%
PRKCG (human); compound 10.0 µM
  residual activity: 106%
PRKCG (human); compound 100.0 µM
  residual activity: 113%
PRKCG (human); compound 1000.0 µM
  residual activity: 114%
PTK6 (human); compound 10.0 µM
  residual activity: 102%
PTK6 (human); compound 100.0 µM
  residual activity: 112%
PTK6 (human); compound 1000.0 µM
  residual activity: 110%
SIK2 (human); compound 10.0 µM
  residual activity: 82%
SIK2 (human); compound 100.0 µM
  residual activity: 94%
SIK2 (human); compound 1000.0 µM
  residual activity: 103%
SIK3 (human); compound 10.0 µM
  residual activity: 98%
SIK3 (human); compound 1000.0 µM
  residual activity: 110%
STK16 (human); compound 10.0 µM
  residual activity: 114%
STK16 (human); compound 100.0 µM
  residual activity: 116%
STK16 (human); compound 1000.0 µM
  residual activity: 109%
STK24 (human); compound 100.0 µM
  residual activity: 104%
STK24 (human); compound 1000.0 µM
  residual activity: 112%
STK33 (human); compound 10.0 µM
  residual activity: 93%
STK33 (human); compound 100.0 µM
  residual activity: 99%
STK33 (human); compound 1000.0 µM
  residual activity: 102%
TEK (human); compound 10.0 µM
  residual activity: 92%
TEK (human); compound 100.0 µM
  residual activity: 100%
TEK (human); compound 1000.0 µM
  residual activity: 99%
TESK1 (human); compound 10.0 µM
  residual activity: 84%
TESK1 (human); compound 100.0 µM
  residual activity: 89%
TESK1 (human); compound 1000.0 µM
  residual activity: 109%
[3]; compound 10.0 µM
  residual activity: 93%
[3]; compound 1000.0 µM
  residual activity: 95%
TLK1 (human); compound 10.0 µM
  residual activity: 103%
TLK1 (human); compound 100.0 µM
  residual activity: 117%
TLK1 (human); compound 1000.0 µM
  residual activity: 110%
TSSK1B (human); compound 10.0 µM
  residual activity: 73%
TSSK1B (human); compound 100.0 µM
  residual activity: 85%
TSSK1B (human); compound 1000.0 µM
  residual activity: 80%
TTBK1 (human); compound 10.0 µM
  residual activity: 88%
TTBK1 (human); compound 100.0 µM
  residual activity: 101%
TTBK2 (human); compound 10.0 µM
  residual activity: 96%
TTBK2 (human); compound 100.0 µM
  residual activity: 99%
TTBK2 (human); compound 1000.0 µM
  residual activity: 96%
ULK1 (human); compound 10.0 µM
  residual activity: 97%
ULK1 (human); compound 100.0 µM
  residual activity: 99%
ULK1 (human); compound 1000.0 µM
  residual activity: 103%
ULK2 (human); compound 10.0 µM
  residual activity: 106%
ULK2 (human); compound 100.0 µM
  residual activity: 109%
ULK2 (human); compound 1000.0 µM
  residual activity: 109%
WNK1 (human); compound 10.0 µM
  residual activity: 109%
WNK1 (human); compound 100.0 µM
  residual activity: 104%
WNK1 (human); compound 1000.0 µM
  residual activity: 114%
ZAP70 (human); compound 10.0 µM
  residual activity: 116%
ZAP70 (human); compound 100.0 µM
  residual activity: 116%
ZAP70 (human); compound 1000.0 µM
  residual activity: 112%
